Test systems include 786-0 renal; RXF 393 renal; TK-10 renal; KM12 colon; OVCAR-3 ovarian; MOLT-4 leukemia; PC-3 prostate; NCI-H460 lung; CAKI-1 renal; U251 CNS.
Common to all, as to test: DTP human tumour cell line panel, 48 h

Molecules are shown by their SMILES. Several values for one entry are separate records, joined by “and”; a condition that tells them apart may be missing. Equal values may be shown once.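 Cultured in 96-well plates, cells were exposed to test compound for 48 hours across five concentrations. GI50 is the concentration that inhibits growth by half. TGI: total growth inhibition.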 Where only a bound is given, the exact number is not on record here.

As for `C=C1C(=O)O[C@H]2[C@H]1CC/C(Cn1cc(Cn3ccc4cc(Cl)ccc43)nn1)=C\CC[C@@]1(C)O[C@@H]21`, the GI50 in the assay with 786-0 renal is 1.81 µM; in the assay with RXF 393 renal, 1.17 µM; in the assay with TK-10 renal it was 1.67 µM; with KM12 colon, 2.01 µM; in the assay on OVCAR-3 ovarian, 1.48 µM; in the assay with MOLT-4 leukemia, 0.599 µM. The GI50 with PC-3 prostate is 1.3 µM; with NCI-H460 lung, 3.27 µM; with CAKI-1 renal it was 1.24 µM; with U251 CNS, 1.69 µM. The TGI with 786-0 renal was determined as 3.57 µM; with RXF 393 renal, 2.46 µM; in the assay with TK-10 renal it was 3.11 µM; with KM12 colon, 4.24 µM; in the assay with OVCAR-3 ovarian, 2.83 µM; in the assay with MOLT-4 leukemia, 3.16 µM. The TGI in the assay with PC-3 prostate worked out at 2.87 µM; in the assay on NCI-H460 lung it was 10.3 µM; in the assay on CAKI-1 renal, 2.5 µM; in the assay on U251 CNS, 3.35 µM.
For `CCSc1nc(=S)[nH]c2[nH]ncc12`, the GI50 in the assay on 786-0 renal was greater than 100 µM; with RXF 393 renal it was 98.3 µM; in the assay with TK-10 renal it was 88.9 µM; in the assay with KM12 colon, 86.5 µM; with OVCAR-3 ovarian, 64.6 µM; in the assay on MOLT-4 leukemia, greater than 100 µM. Further, the GI50 in the assay on PC-3 prostate is greater than 100 µM; in the assay with NCI-H460 lung, greater than 100 µM; in the assay with CAKI-1 renal it was 50.8 µM; in the assay on U251 CNS it was greater than 100 µM. The TGI in the assay on 786-0 renal, in the assay on RXF 393 renal, with TK-10 renal, in the assay on KM12 colon, in the assay on OVCAR-3 ovarian and in the assay on MOLT-4 leukemia was greater than 100 µM in each case. In addition, the total growth inhibition concentration (TGI) with PC-3 prostate, with NCI-H460 lung, in the assay on CAKI-1 renal and with U251 CNS was greater than 100 µM each time.
Consider `CC1=Cc2cc3[n-]c(cc4nc(cc5[n-]c(cc1n2)c(C)c5CCC(=O)O)C(CCC(=O)O)=C4C)cc3C.[Cu+2]`, for which the GI50 was > 1 µM and 21.1 µM with 786-0 renal; > 1 µM and 15.4 µM in the assay with RXF 393 renal; > 1 µM and 17.6 µM with TK-10 renal; greater than 92.2 µM in the assay with KM12 colon; > 1 µM and 26.5 µM with OVCAR-3 ovarian; > 1 µM and 46.3 µM in the assay on MOLT-4 leukemia. Further, the GI50 in the assay with PC-3 prostate is 12.9 µM; in the assay with NCI-H460 lung, greater than 100 µM; in the assay with CAKI-1 renal, > 1 µM and 23.2 µM; with U251 CNS, > 1 µM and 9.85 µM. The TGI in the assay with 786-0 renal is > 1 µM and 54.5 µM; with RXF 393 renal, > 1 µM and 33.9 µM; in the assay with TK-10 renal, > 1 µM and 38.3 µM; in the assay with KM12 colon it was greater than 100 µM; with OVCAR-3 ovarian, > 1 µM and 92.3 µM; with MOLT-4 leukemia, greater than 88.7 µM. Also, the concentration for total growth inhibition (TGI) in the assay with PC-3 prostate is 29.5 µM; in the assay on NCI-H460 lung it was greater than 100 µM; with CAKI-1 renal, greater than 68.2 µM; with U251 CNS, > 1 µM and 23.2 µM.
In the case of `O=C1C(Br)=C(c2ccccc2)C(c2ccccc2)=C1c1ccccc1`, the TGI with 786-0 renal is 4.26 µM; with RXF 393 renal it was 3.92 µM; in the assay with TK-10 renal, 7.12 µM; in the assay with KM12 colon, 18.5 µM; in the assay on OVCAR-3 ovarian, 6.37 µM; in the assay with MOLT-4 leukemia, 3.74 µM. The TGI was 16.2 µM with PC-3 prostate, 18 µM with NCI-H460 lung, 6.06 µM with CAKI-1 renal and 9.83 µM in the assay on U251 CNS.
Turning to `COc1cc(C(=O)O)ccc1NC(=O)[C@@H]1N[C@@H](CC(C)(C)C)[C@](C#N)(c2ccc(Cl)cc2F)[C@H]1c1cccc(Cl)c1F`, the GI50 in the assay with 786-0 renal was 3.45 µM; with RXF 393 renal, 3.55 µM; with TK-10 renal, 5.28 µM; with KM12 colon, 2.58 µM; in the assay on OVCAR-3 ovarian, 1.77 µM; in the assay with MOLT-4 leukemia, 0.083 µM. Besides, the GI50 in the assay on PC-3 prostate was 2.91 µM; in the assay on NCI-H460 lung, 0.077 µM; in the assay with CAKI-1 renal, 0.1 µM; in the assay on U251 CNS it was 3.16 µM. Also, the TGI was 18.4 µM in the assay with 786-0 renal; 10.3 µM with RXF 393 renal; 21.2 µM in the assay with TK-10 renal; greater than 24.2 µM with KM12 colon; 4.3 µM with OVCAR-3 ovarian; 2.07 µM with MOLT-4 leukemia. Moreover, the TGI in the assay on PC-3 prostate is greater than 42.6 µM; in the assay on NCI-H460 lung, 2.27 µM; with CAKI-1 renal it was 7.01 µM; with U251 CNS, 11 µM.
As to `COc1cc2c3c(n(CCCn4ccnc4)c(=O)c2cc1OC)-c1ccccc1C3=O`, the GI50 in the assay with 786-0 renal is less than 0.01 µM; in the assay with RXF 393 renal it was less than 0.01 µM; in the assay on TK-10 renal it was 0.923 µM; with KM12 colon, 0.126 µM; with OVCAR-3 ovarian it was less than 0.0471 µM; in the assay with MOLT-4 leukemia it was less than 0.01 µM. For the same compound, the GI50 is 0.169 µM in the assay on PC-3 prostate, less than 0.01 µM with NCI-H460 lung, less than 0.01 µM in the assay with CAKI-1 renal and less than 0.0122 µM with U251 CNS. The TGI is 0.194 µM with 786-0 renal; 27.5 µM in the assay on TK-10 renal; 5.03 µM with KM12 colon; 0.484 µM with OVCAR-3 ovarian; less than 0.0167 µM with MOLT-4 leukemia; greater than 100 µM with PC-3 prostate. For the same compound, the TGI in the assay on NCI-H460 lung was 4.77 µM; in the assay with CAKI-1 renal, 0.105 µM; with U251 CNS it was 0.57 µM.
With `COc1ccc(C(=O)c2ccc(OC)cc2OC)cc1`, the GI50 was 5.32 µM in the assay with 786-0 renal; 1.56 µM with RXF 393 renal; 5.01 µM with TK-10 renal; 2.22 µM in the assay on KM12 colon; 2.2 µM with OVCAR-3 ovarian; 4.9 µM in the assay on MOLT-4 leukemia. For the same compound, the GI50 in the assay with PC-3 prostate is 4.38 µM; in the assay on NCI-H460 lung it was 3.74 µM; in the assay with CAKI-1 renal it was 3.75 µM; in the assay on U251 CNS, 4.27 µM. In addition, the concentration for total growth inhibition (TGI) is greater than 100 µM in the assay on 786-0 renal; 6.15 µM with RXF 393 renal; greater than 100 µM with TK-10 renal; 24.7 µM with KM12 colon; 5.95 µM with OVCAR-3 ovarian; greater than 100 µM in the assay with MOLT-4 leukemia. For the same compound, the TGI with PC-3 prostate was greater than 100 µM; in the assay on NCI-H460 lung, 89.5 µM; with CAKI-1 renal, greater than 100 µM; in the assay on U251 CNS, greater than 100 µM.
On to `N#Cc1c(SCc2ccccc2)nc2[nH]c(=S)[nH]c(=S)c2c1-c1ccco1`, for which the GI50 was 42.6 µM in the assay on 786-0 renal; 37.9 µM in the assay on RXF 393 renal; 15.2 µM in the assay with TK-10 renal; 60.3 µM in the assay on KM12 colon; 25.8 µM with OVCAR-3 ovarian; 5.04 µM in the assay with MOLT-4 leukemia. Besides, the GI50 in the assay on PC-3 prostate is 0.448 µM; in the assay with NCI-H460 lung, 32.3 µM; in the assay on CAKI-1 renal, 42.9 µM; with U251 CNS it was greater than 100 µM. Besides, the TGI in the assay on 786-0 renal was greater than 100 µM; in the assay with RXF 393 renal, greater than 100 µM; in the assay with TK-10 renal, 72.1 µM; in the assay on KM12 colon, greater than 100 µM; in the assay on OVCAR-3 ovarian it was 73.5 µM; in the assay with MOLT-4 leukemia, greater than 100 µM. Further, the TGI in the assay on PC-3 prostate is 20.5 µM; in the assay on NCI-H460 lung, greater than 100 µM; with CAKI-1 renal it was greater than 100 µM; in the assay on U251 CNS, greater than 100 µM.
With `O=[N+]([O-])c1ccccc1/C=C/C=C1c2ccccc2-c2ccccc21`, the GI50 with 786-0 renal, in the assay on RXF 393 renal, in the assay with TK-10 renal, with KM12 colon, in the assay on OVCAR-3 ovarian and with MOLT-4 leukemia was greater than 100 µM each time. The GI50 with PC-3 prostate, in the assay on NCI-H460 lung, in the assay on CAKI-1 renal and in the assay with U251 CNS was greater than 100 µM throughout. For the same compound, the TGI in the assay with 786-0 renal, with RXF 393 renal, in the assay on TK-10 renal, in the assay on KM12 colon, in the assay on OVCAR-3 ovarian and with MOLT-4 leukemia was greater than 100 µM each time. Further, the TGI with PC-3 prostate, with NCI-H460 lung, with CAKI-1 renal and in the assay on U251 CNS was greater than 100 µM throughout.
As to `COc1ccc(/C(Cl)=C(\C=O)c2cc(OC)c(OC)c(OC)c2)cc1OC`, the TGI is greater than 100 µM with 786-0 renal; greater than 100 µM with RXF 393 renal; greater than 100 µM in the assay on TK-10 renal; 73.8 µM in the assay with KM12 colon; greater than 100 µM in the assay with OVCAR-3 ovarian; greater than 100 µM in the assay on MOLT-4 leukemia. Moreover, the TGI in the assay with PC-3 prostate is greater than 100 µM; with NCI-H460 lung, greater than 100 µM; in the assay on CAKI-1 renal it was greater than 100 µM; in the assay on U251 CNS it was greater than 61.2 µM.

Usually GI50 stands for the concentration that inhibits growth by half. One may read the TGI as the concentration giving total growth inhibition. A high value points to lower sensitivity of the cells.

For the origin of these results see PubChem BioAssay (NCI).
